Measurements reported in publication PMC4447944 (The Journal of Biological Chemistry, 2015).
pIC50: −log10 of the molar value.

Tests used:
hLIMK2 = molecular target: T1, hLIMK2 (Homo sapiens, UniProt P53671); experiment: KINOMEscan; assay type: binding
T1 construct: purchased DiscoverX (KINOMEscan platform)

hIRAK3 = molecular target: T2, hIRAK3 (Homo sapiens, UniProt Q9Y616); experiment: KINOMEscan; assay type: binding
T2 construct: purchased DiscoverX (KINOMEscan panel)

MDA MB-231 cells = experiment: Proliferation assay (CellTiter-Glo); assay type: cell-based, human
Protocol: Cell viability was measured using CellTiter-Glo^TM (Promega) according to the manufacturer's instructions.

hLRRK2(G2019S) = molecular target: T3, hLRRK2(G2019S) (Homo sapiens, UniProt Q5S007, G2019S); experiment: KINOMEscan; assay type: binding
T3 construct: purchased DiscoverX (KINOMEscan platform)

hRET(V804L) = molecular target: T4, hRET(V804L) (Homo sapiens, UniProt P07949, V804L); experiment: KINOMEscan; assay type: binding
T4 construct: purchased DiscoverX (KINOMEscan platform)

hERK1 = molecular target: T5, hERK1 (Homo sapiens, UniProt P27361); experiment: KINOMEscan; assay type: binding
T5 construct: purchased DiscoverX

hEGFR(T790M) = molecular target: T6, hEGFR(T790M) (Homo sapiens, UniProt P00533, T790M); experiment: KINOMEscan; assay type: binding
T6 construct: purchased DiscoverX

[1] = test system: lysine methylation of histone H3 or H4; experiment: Mass spectrometry proteomics of cell-derived histones, SMYD2-overexpressing KYSE-150 cells; assay type: cell-based, human; details: 5 μM LLY-507 versus untreated cells
Protocol: Acid-extracted histone samples were chemically derivatized using propionic anhydride and digested with trypsin for 6 h at 37 °C. The digested peptides were treated with an additional round of propionylation and desalted using a C18 extracted mini disk (Empore 3M). Approximately 1 μg of each sample was loaded via an autosampler (Eksigent NanoLC.Ultra 2D Plus) onto a homemade precolumn (3-μm particle size, 120-Å pore size) at a flow rate of 2 μl/min. Peptides were chromatographically resolved via a 75-μm reversed phase analytical column packed with C18-AQ resin (1.9-μm particle size, 120-Å pore size) using a 77-min 2–98% solvent B gradient (solvent A, 0.1% formic acid; solvent B, 100% acetonitrile) at a flow rate of 250 nl/min. The electrosprayed peptides were detected by an Orbitrap Elite^TM mass spectrometer (Thermo Fisher Scientific) with a resolution of 120,000 for full MS spectrum followed by MS/MS spectra obtained in the ion trap. The relative abundance of each modification, expressed as a percentage on a histone peptide sequence, was quantified by analyzing its MS and MS/MS spectra via Epiquant, an in-house software.

hPRP4 = molecular target: T7, hPRP4 (Homo sapiens, UniProt Q13523); experiment: KINOMEscan; assay type: binding
T7 construct: purchased DiscoverX

hCLK2 = molecular target: T8, hCLK2 (Homo sapiens, UniProt P49760); experiment: KINOMEscan; assay type: binding
T8 construct: purchased DiscoverX

hFER = molecular target: T9, hFER (Homo sapiens, UniProt P16591); experiment: KINOMEscan; assay type: binding
T9 construct: purchased DiscoverX

hRARγ = molecular target: T10, hRARγ (Homo sapiens, UniProt P13631); experiment: Nuclear hormone receptor assay (Eurofins-CEREP); details: read-out: Relative IC50
T10 construct: Eurofins-CEREP

hFLT3 = molecular target: T11, hFLT3 (Homo sapiens, UniProt P36888); experiment: KINOMEscan; assay type: binding
T11 construct: purchased DiscoverX

hCSF1R = molecular target: T12, hCSF1R (Homo sapiens, UniProt P07333); experiment: KINOMEscan; assay type: binding
T12 construct: purchased DiscoverX (KINOMEscan platform)

hBLK = molecular target: T13, hBLK (Homo sapiens, UniProt P51451); experiment: KINOMEscan; assay type: binding
T13 construct: purchased DiscoverX

hALK = molecular target: T14, hALK (Homo sapiens, UniProt Q9UM73); experiment: KINOMEscan; assay type: binding
T14 construct: purchased DiscoverX

hULK2 = molecular target: T15, hULK2 (Homo sapiens, UniProt Q8IYT8); experiment: KINOMEscan; assay type: binding
T15 construct: purchased DiscoverX

hEPHA2 = molecular target: T16, hEPHA2 (Homo sapiens, UniProt P29317); experiment: KINOMEscan; assay type: binding
T16 construct: purchased DiscoverX

hROCK1 = molecular target: T17, hROCK1 (Homo sapiens, UniProt Q13464); experiment: KINOMEscan; assay type: binding
T17 construct: purchased DiscoverX (KINOMEscan platform)

hTAOK1 = molecular target: T18, hTAOK1 (Homo sapiens, UniProt Q7L7X3); experiment: KINOMEscan; assay type: binding
T18 construct: purchased DiscoverX

hDYRK2 = molecular target: T19, hDYRK2 (Homo sapiens, UniProt Q92630); experiment: KINOMEscan; assay type: binding
T19 construct: purchased DiscoverX

hMAP3K15 = molecular target: T20, hMAP3K15 (Homo sapiens, UniProt Q6ZN16); experiment: KINOMEscan; assay type: binding
T20 construct: purchased DiscoverX (KINOMEscan platform)

hRSK4(Kin.Dom.2-C-term) = molecular target: T21, hRSK4(Kin.Dom.2-C-term) (Homo sapiens, UniProt Q9UK32); experiment: KINOMEscan; assay type: binding
T21 construct: hRSK4(Kin.Dom.2-C-term); purchased DiscoverX (KINOMEscan platform)

hFLT1 = molecular target: T22, hFLT1 (Homo sapiens, UniProt P17948); experiment: KINOMEscan; assay type: binding
T22 construct: purchased DiscoverX

hARK5 = molecular target: T23, hARK5 (Homo sapiens, UniProt O60285); experiment: KINOMEscan; assay type: binding
T23 construct: purchased DiscoverX

hD2L = hD2L (Homo sapiens, UniProt P14416); experiment: cAMP Agonist (Eurofins-CEREP); details: @ 10 μM
hRSK2(Kin.Dom.2-C-term) = molecular target: T24, hRSK2(Kin.Dom.2-C-term) (Homo sapiens, UniProt P51812); experiment: KINOMEscan; assay type: binding
T24 construct: hRSK2(Kin.Dom.2-C-term); purchased DiscoverX (KINOMEscan platform)

hBUB1 = molecular target: T25, hBUB1 (Homo sapiens, UniProt O43683); experiment: KINOMEscan; assay type: binding
T25 construct: purchased DiscoverX

hABL1(F317L) = molecular target: T26, hABL1(F317L) (Homo sapiens, UniProt P00519, F317L); experiment: KINOMEscan; assay type: binding
T26 construct: purchased DiscoverX (KINOMEscan platform)

hIKK-beta = molecular target: T27, hIKK-beta (Homo sapiens, UniProt O14920); experiment: KINOMEscan; assay type: binding
T27 construct: purchased DiscoverX (KINOMEscan panel)

hMINK = molecular target: T28, hMINK (Homo sapiens, UniProt Q8N4C8); experiment: KINOMEscan; assay type: binding
T28 construct: purchased DiscoverX

hS6K1 = molecular target: T29, hS6K1 (Homo sapiens, UniProt P23443); experiment: KINOMEscan; assay type: binding
T29 construct: purchased DiscoverX (KINOMEscan platform)

hHASPIN = molecular target: T30, hHASPIN (Homo sapiens, UniProt Q8TF76); experiment: KINOMEscan; assay type: binding
T30 construct: purchased DiscoverX

hBMPR1B = molecular target: T31, hBMPR1B (Homo sapiens, UniProt O00238); experiment: KINOMEscan; assay type: binding
T31 construct: purchased DiscoverX

T16 sequence (P29317 24-976): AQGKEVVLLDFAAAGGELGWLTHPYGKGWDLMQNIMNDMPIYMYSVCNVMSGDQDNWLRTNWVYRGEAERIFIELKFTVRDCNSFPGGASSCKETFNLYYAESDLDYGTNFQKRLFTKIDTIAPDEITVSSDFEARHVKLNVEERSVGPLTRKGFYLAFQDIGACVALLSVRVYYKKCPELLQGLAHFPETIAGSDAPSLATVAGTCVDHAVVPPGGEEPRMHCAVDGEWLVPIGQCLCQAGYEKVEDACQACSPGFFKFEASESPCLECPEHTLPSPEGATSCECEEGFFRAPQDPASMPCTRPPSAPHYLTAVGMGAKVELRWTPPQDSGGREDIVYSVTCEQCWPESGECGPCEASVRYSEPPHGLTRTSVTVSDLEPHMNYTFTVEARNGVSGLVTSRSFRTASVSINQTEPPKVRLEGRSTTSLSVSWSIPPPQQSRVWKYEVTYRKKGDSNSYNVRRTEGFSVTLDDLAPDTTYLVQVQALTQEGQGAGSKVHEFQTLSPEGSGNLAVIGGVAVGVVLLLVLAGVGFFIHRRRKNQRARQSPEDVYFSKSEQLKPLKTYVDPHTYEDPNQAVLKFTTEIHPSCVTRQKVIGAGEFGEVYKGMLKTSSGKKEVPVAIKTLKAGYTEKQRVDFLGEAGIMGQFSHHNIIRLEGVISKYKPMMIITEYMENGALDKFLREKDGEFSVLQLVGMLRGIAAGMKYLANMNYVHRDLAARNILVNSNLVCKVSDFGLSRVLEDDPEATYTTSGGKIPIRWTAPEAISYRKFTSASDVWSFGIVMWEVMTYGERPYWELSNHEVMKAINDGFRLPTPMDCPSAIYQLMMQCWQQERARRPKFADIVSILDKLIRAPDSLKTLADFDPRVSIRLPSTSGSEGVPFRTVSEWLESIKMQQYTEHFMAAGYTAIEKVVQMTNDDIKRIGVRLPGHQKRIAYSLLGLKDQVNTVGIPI
T23 sequence (O60285 whole entry): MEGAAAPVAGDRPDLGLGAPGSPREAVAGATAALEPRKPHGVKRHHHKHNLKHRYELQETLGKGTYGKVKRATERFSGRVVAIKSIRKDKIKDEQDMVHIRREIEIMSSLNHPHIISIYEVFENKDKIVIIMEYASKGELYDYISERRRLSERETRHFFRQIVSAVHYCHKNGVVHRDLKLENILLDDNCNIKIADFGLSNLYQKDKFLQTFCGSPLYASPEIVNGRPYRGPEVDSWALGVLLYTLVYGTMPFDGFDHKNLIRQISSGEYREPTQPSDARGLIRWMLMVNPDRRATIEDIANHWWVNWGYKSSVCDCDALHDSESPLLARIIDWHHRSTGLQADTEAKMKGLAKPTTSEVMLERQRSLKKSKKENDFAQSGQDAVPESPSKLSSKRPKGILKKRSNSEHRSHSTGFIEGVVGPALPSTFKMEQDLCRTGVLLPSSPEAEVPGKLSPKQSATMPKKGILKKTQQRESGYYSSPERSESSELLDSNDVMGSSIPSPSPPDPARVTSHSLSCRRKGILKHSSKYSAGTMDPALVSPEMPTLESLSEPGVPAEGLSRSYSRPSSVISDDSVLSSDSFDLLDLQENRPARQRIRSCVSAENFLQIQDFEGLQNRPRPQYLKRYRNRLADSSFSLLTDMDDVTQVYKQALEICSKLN
T29 sequence (P23443 whole entry): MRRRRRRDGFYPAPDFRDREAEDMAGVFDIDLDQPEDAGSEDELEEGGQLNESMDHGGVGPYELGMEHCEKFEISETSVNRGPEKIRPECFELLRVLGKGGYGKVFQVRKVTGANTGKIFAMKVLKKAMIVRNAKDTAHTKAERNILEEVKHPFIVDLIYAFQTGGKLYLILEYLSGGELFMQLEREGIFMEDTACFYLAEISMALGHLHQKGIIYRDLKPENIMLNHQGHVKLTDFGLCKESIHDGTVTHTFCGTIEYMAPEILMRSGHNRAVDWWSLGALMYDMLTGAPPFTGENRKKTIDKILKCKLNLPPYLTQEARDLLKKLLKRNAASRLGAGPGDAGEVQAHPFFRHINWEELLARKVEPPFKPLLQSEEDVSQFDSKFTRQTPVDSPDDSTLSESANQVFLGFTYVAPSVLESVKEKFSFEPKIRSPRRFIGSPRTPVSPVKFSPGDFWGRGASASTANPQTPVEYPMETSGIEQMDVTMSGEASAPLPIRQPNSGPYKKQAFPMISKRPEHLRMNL
T8 sequence (P49760 whole entry): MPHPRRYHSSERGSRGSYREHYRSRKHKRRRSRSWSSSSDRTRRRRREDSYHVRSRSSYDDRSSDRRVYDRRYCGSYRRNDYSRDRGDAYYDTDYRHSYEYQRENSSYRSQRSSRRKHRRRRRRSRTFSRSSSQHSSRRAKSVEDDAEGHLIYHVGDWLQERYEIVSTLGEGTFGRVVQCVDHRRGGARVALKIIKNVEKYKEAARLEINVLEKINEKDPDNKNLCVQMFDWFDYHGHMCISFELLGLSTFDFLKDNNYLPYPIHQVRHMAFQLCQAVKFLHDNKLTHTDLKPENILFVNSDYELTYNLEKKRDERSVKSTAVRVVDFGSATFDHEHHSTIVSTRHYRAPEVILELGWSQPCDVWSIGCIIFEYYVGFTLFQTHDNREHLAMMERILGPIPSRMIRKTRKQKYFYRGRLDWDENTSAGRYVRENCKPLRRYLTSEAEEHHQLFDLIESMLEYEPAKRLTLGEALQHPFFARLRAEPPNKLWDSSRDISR
T28 sequence (Q8N4C8 whole entry): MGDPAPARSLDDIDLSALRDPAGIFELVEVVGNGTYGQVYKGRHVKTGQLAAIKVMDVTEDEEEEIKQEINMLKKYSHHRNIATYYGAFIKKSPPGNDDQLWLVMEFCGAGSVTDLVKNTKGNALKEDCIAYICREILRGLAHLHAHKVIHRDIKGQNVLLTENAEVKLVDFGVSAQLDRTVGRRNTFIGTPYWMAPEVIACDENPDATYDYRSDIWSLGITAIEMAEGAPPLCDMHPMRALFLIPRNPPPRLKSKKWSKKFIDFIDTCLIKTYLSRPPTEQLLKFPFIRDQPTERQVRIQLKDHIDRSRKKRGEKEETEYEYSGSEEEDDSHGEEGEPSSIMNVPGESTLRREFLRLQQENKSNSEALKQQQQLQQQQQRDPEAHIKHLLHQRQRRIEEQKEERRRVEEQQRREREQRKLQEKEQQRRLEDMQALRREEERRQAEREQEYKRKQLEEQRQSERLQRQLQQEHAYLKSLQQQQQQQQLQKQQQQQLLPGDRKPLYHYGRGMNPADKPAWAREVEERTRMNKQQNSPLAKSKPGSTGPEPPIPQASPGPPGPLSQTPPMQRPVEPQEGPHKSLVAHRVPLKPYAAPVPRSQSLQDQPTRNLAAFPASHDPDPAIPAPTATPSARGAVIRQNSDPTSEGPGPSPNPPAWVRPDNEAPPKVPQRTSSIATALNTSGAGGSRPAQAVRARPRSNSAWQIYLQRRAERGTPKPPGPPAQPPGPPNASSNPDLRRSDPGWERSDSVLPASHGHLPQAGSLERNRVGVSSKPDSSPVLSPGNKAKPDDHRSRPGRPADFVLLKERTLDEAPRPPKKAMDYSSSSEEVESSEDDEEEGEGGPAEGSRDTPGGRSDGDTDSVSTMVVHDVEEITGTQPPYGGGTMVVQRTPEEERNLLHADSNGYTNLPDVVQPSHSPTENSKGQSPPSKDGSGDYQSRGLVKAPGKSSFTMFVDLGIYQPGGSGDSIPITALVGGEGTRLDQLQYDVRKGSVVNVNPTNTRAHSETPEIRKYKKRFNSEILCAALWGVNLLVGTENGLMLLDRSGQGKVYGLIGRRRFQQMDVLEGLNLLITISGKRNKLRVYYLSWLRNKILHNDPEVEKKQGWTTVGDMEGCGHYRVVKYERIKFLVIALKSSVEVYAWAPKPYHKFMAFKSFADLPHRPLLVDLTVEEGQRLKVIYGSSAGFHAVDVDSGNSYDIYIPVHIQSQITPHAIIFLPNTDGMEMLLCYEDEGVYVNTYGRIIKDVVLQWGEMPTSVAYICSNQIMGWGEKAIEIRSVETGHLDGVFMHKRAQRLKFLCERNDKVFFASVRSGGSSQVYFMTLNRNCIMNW
T2 sequence (Q9Y616 whole entry): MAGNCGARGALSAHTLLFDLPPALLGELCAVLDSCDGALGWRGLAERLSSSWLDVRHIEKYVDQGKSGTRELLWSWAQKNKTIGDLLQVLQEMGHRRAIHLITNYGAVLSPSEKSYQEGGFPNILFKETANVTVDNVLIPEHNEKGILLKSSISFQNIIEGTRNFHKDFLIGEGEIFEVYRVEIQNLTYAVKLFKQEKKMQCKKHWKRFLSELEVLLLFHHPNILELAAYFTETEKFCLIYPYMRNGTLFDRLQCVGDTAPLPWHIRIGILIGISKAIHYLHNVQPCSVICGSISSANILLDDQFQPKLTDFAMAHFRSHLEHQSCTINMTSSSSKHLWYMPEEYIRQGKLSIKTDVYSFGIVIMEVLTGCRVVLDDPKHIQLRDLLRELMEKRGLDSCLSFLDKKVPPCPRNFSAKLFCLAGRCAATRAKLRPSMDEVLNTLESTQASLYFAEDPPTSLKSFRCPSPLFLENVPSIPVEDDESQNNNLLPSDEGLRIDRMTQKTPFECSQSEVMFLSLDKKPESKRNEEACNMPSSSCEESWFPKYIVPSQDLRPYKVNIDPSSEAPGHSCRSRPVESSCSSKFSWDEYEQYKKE
T21 sequence (Q9UK32 426-683 limits assumed): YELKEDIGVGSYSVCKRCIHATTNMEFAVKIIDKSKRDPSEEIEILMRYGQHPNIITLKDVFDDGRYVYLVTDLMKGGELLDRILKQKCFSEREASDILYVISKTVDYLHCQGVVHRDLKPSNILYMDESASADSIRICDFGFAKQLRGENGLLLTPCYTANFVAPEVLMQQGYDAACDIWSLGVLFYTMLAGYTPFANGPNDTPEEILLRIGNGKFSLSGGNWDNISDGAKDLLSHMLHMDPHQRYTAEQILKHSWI

Question: `Cc1cn(CCN2CCN(c3ccccc3-c3cc(C#N)cc(C(=O)NCCCN4CCCC4)c3)CC2)c2ccccc12` [LLY-507, 3-cyano-5-{2-[4-[2-(3-methylindol-1-yl)ethyl]piperazin-1-yl]-phenyl}-N-[(3-pyrrolidin-1-yl)propyl]benzamide] was tested. Which pIC50 (hLIMK2) did it give?
Answer: Its pIC50 is under 4.70.

Question: And the pIC50 (hIRAK3)?
Answer: The pIC50 was under 4.70.

Question: And the “increase in sensitivity at 7 days compared with 3 to 4-day treatment” value (MDA MB-231 cells)?
Answer: The value was over 5 fold.

Question: And the pIC50 (hLRRK2(G2019S))?
Answer: Its pIC50 is under 4.70.

Question: And the pIC50 (hRET(V804L))?
Answer: Its pIC50 is under 4.70.

Question: What about the pIC50 (hERK1) of the same compound?
Answer: Its pIC50 is under 4.70.

Question: What about the pIC50 (hEGFR(T790M)) of the same compound?
Answer: Its pIC50 is under 4.70.

Question: And the “change in lysine methylation of histone H3 or H4” value [1]?
Answer: Its value is “did not show any significant change”.

Question: And the pIC50 (hPRP4)?
Answer: The pIC50 was under 4.70.

Question: What about the pIC50 (hCLK2) of the same compound?
Answer: The pIC50 was under 4.70.

Question: What about the pIC50 (hFER) of the same compound?
Answer: Its pIC50 is under 4.70.

Question: And the pIC50 (hRARγ)?
Answer: The pIC50 was under 5.00.

Question: What about the pIC50 (hFLT3) of the same compound?
Answer: Its pIC50 is under 4.70.

Question: What about the pIC50 (hCSF1R) of the same compound?
Answer: Its pIC50 is under 4.70.

Question: What about the pIC50 (hBLK) of the same compound?
Answer: Its pIC50 is under 4.70.

Question: And the pIC50 (hALK)?
Answer: The pIC50 was under 4.70.

Question: What about the pIC50 (hULK2) of the same compound?
Answer: The pIC50 was under 4.70.

Question: And the pIC50 (hEPHA2)?
Answer: Its pIC50 is under 4.70.

Question: What about the pIC50 (hROCK1) of the same compound?
Answer: Its pIC50 is under 4.70.

Question: What about the pIC50 (hTAOK1) of the same compound?
Answer: Its pIC50 is under 4.70.

Question: And the pIC50 (hDYRK2)?
Answer: Its pIC50 is under 4.70.

Question: What about the pIC50 (hMAP3K15) of the same compound?
Answer: Its pIC50 is under 4.70.

Question: And the pIC50 (hRSK4(Kin.Dom.2-C-term))?
Answer: Its pIC50 is under 4.70.

Question: And the pIC50 (hFLT1)?
Answer: Its pIC50 is under 4.70.

Question: What about the pIC50 (hARK5) of the same compound?
Answer: Its pIC50 is under 4.70.

Question: And the “% Effect, Stimulation” value (hD2L)?
Answer: Its value is 10.1%.

Question: What about the pIC50 (hRSK2(Kin.Dom.2-C-term)) of the same compound?
Answer: Its pIC50 is under 4.70.

Question: And the pIC50 (hBUB1)?
Answer: Its pIC50 is under 4.70.

Question: What about the pIC50 (hABL1(F317L)) of the same compound?
Answer: Its pIC50 is under 4.70.

Question: And the pIC50 (hIKK-beta)?
Answer: The pIC50 was under 4.70.

Question: And the pIC50 (hMINK)?
Answer: Its pIC50 is under 4.70.

Question: What about the pIC50 (hS6K1) of the same compound?
Answer: The pIC50 was under 4.70.

Question: And the pIC50 (hHASPIN)?
Answer: Its pIC50 is under 4.70.

Question: And the pIC50 (hBMPR1B)?
Answer: Its pIC50 is under 4.70.
